We go through 28 molecules from patent publication US20230127839A1, “COMPOUNDS AND COMPOSITIONS FOR TREATING CONDITIONS ASSOCIATED WITH STING ACTIVITY” (IFM Due, Inc., priority 2019, published 2023).

Each structure is given as a SMILES string.

In the experiment the target is T1, hSTING (Homo sapiens, UniProt Q86WV6, G230A/H232R/R293Q/R71H).
T1 construct: host or cells: THP1-Dual KO-IFNAR2 cells
T1 sequence (Q86WV6 whole entry R71H/G230A/H232R/R293Q): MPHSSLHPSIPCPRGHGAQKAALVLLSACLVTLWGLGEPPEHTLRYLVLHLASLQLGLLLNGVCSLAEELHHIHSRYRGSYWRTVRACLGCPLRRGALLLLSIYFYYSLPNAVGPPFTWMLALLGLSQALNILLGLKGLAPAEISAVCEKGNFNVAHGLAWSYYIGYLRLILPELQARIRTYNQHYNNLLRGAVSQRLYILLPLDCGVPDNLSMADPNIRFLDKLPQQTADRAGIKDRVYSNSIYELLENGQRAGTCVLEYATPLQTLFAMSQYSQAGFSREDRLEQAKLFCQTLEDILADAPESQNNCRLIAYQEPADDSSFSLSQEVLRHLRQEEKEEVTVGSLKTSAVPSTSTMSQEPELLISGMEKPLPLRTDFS
As to the kind of experiment: STING reporter assay (luciferase) in THP1-Dual KO-IFNAR2 cells stimulated with 2'3'cGAMP. The class given is cell-based. The note with it: 2'3'cGAMP 15 μM, 24 h, luciferase reporter activity. As for the experimental part: STING pathway activation by the compounds described herein is measured using THP1-Dual™ cells (KO-IFNAR2).
THP1-Dual™ KO-IFNAR2 Cells (obtained from invivogen) are maintained in RPMI, 10% FCS, 5 ml P/S, 2 mM L-glut, 10 mM Hepes, and 1 mM sodium pyruvate.
Compounds are spotted in empty 384 well tissue culture plates (Greiner 781182) by Echo for a final concentration of 0.0017-100 μM. Cells are plated into the TC plates at 40 μL per well, 2×10E6 cells/mL. For activation with STING ligand, 2′3′cGAMP (MW 718.38, obtained from Invivogen), is prepared in Optimem media.
The following solutions are prepared for each 1×384 plate: • Solution A: 2 mL Optimem with one of the following stimuli: • 60 uL of 10 mM 2′3′cGAMP->150 μM stock • Solution B: 2 mL Optimem with 60 μL Lipofectamine 2000->Incubate 5 min at RT
2 mL of solution A and 2 ml Solution B is mixed and incubated for 20 min at room temperature (RT). 20 uL of transfection solution (A+B) is added on top of the plated cells, with a final 2′3′cGAMP concentration of 15 μM. The plates are then centrifuged immediately at 340 g for 1 minute, after which they are incubated at 37° C., 5% CO2, >98% humidity for 24 h. Luciferase reporter activity is then measured. EC50 values are calculated by using standard methods known in the art.
Luciferase reporter assay: 10 μL of supernatant from the assay is transferred to white 384-plate with flat bottom and squared wells. One pouch of QUANTI-Luc™ Plus us dissolved in 25 mL of water. 100 μL of QLC Stabilizer per 25 mL of QUANTI-Luc™ Plus solution is added. 50 μL of QUANTI-Luc™ Plus/QLC solution per well is then added. Luminescence is measured on a Platereader (e.g., Spectramax I3X (Molecular Devices GF3637001)).
Luciferase reporter activity is then measured. EC50 values are calculated by using standard methods known in the art.
On the technique in general: A reporter such as luciferase makes a cellular process visible.
The EC50 is the concentration at which the effect is half-maximal. A low value points to higher potency in that assay. On to `COCCO[C@@H]1CCN(c2ncc(NC(=O)Nc3c[nH]c4cc(F)c(F)cc34)cc2Cl)C1` [Compound 185, (R)-1-(5-chloro-6-(3-(2-methoxyethoxy)pyrrolidin-1-yl)pyridin-3-yl)-3-(5,6-difluoro-1H-indol-3-yl)urea], for which the EC50 was in the range of 200 to 1000 nM.
As for `O=C(Nc1cnc(N2CC3(CCOC3)C2)c(Cl)c1)Nc1c[nH]c2cc(F)c(F)cc12` [Compound 186, 1-(5-chloro-6-(6-oxa-2-azaspiro[3.4]octan-2-yl)pyridin-3-yl)-3-(5,6-difluoro-1H-indol-3-yl)urea], the figure is 200 to 1000 nM; as for `COC1(C)CN(c2ncc(NC(=O)Nc3c[nH]c4cc(F)c(F)cc34)cc2Cl)C1` [Compound 187, 1-(5-chloro-6-(3-methoxy-3-methylazetidin-1-yl)pyridin-3-yl)-3-(5,6-difluoro-1H-indol-3-yl)urea], 200 to 1000 nM.
The value for `C[C@H]1CN(c2ncc(NC(=O)Nc3c[nH]c4cc(F)c(F)cc34)cc2Cl)CCO1` [Compound 188, (S)-1-(5-chloro-6-(2-methylmorpholino)pyridin-3-yl)-3-(5,6-difluoro-1H-indol-3-yl)urea] was 200 to 1000 nM.
The value for `O=C(Nc1cnc(N2CCC(F)(F)CC2)cn1)Nc1c[nH]c2ccc(Cl)cc12` [Compound 189, 1-(5-chloro-1H-indol-3-yl)-3-(5-(4,4-difluoropiperidin-1-yl)pyrazin-2-yl)urea] was 40 to 200 nM; that for `O=C(Nc1ccc(C2CCC(F)(F)CC2)nc1)Nc1c[nH]c2ccccc12` [Compound 190, 1-(6-(4,4-difluorocyclohexyl)pyridin-3-yl)-3-(1H-indol-3-yl)urea] was 200 to 1000 nM; that for `O=C(Nc1cnc(C2CCC(F)(F)CC2)c(Cl)c1)Nc1c[nH]c2ccc(O)cc12` [Compound 191, 1-(5-chloro-6-(4,4-difluorocyclohexyl)pyridin-3-yl)-3-(5-hydroxy-1H-indol-3-yl)urea] was 200 to 1000 nM.
Regarding `O=C(Nc1ccc(C2CCC(F)(F)CC2)nc1)Nc1c[nH]c2ccc(I)cc12` [Compound 192, 1-(6-(4,4-difluorocyclohexyl)pyridin-3-yl)-3-(5-iodo-1H-indol-3-yl)urea], the concentration for a half-maximal effect (EC50) is 40 to 200 nM.
As for `O=C(Nc1cnc(N2CCC(F)(F)CC2)c(Cl)c1)Nc1c[nH]c2ccc(F)cc12` [Compound 193, 1-(5-chloro-6-(4,4-difluoropiperidin-1-yl)pyridin-3-yl)-3-(5-fluoro-1H-indol-3-yl)urea], the figure is 40 to 200 nM; as for `O=C(Nc1cnc(N2CCC(F)(F)CC2)cn1)Nc1c[nH]c2cc(F)c(F)cc12` [Compound 194, 1-(5,6-difluoro-1H-indol-3-yl)-3-(5-(4,4-difluoropiperidin-1-yl)pyrazin-2-yl)urea], 200 to 1000 nM.
The value for `Cc1cc(NC(=O)Nc2c[nH]c3ccc(F)cc23)cnc1N1CCC(F)(F)CC1` [Compound 195, 1-(6-(4,4-difluoropiperidin-1-yl)-5-methylpyridin-3-yl)-3-(5-fluoro-1H-indol-3-yl)urea] was 40 to 200 nM; that for `O=C(Nc1cnc(N2CCC(F)(F)CC2)c(Cl)c1)Nc1c[nH]c2ccc(Cl)cc12` [Compound 196, 1-(5-chloro-1H-indol-3-yl)-3-(5-chloro-6-(4,4-difluoropiperidin-1-yl)pyridin-3-yl)urea] was 40 to 200 nM; that for `Cc1ccc2[nH]cc(NC(=O)Nc3cnc(N4CCC(F)(F)CC4)c(C)c3)c2c1` [Compound 197, 1-(6-(4,4-difluoropiperidin-1-yl)-5-methylpyridin-3-yl)-3-(5-methyl-1H-indol-3-yl)urea] was 40 to 200 nM.
Regarding `Cc1cc(NC(=O)Nc2c[nH]c3ccccc23)cnc1N1CCC2(CC1)CC2` [Compound 198, 1-(1H-indol-3-yl)-3-(5-methyl-6-(6-azaspiro[2.5]octan-6-yl)pyridin-3-yl)urea], the EC50 lay within 40 to 200 nM.
As for `O=C(Nc1cnc(N2CCC(F)(F)CC2)c(Cl)c1)Nc1c[nH]c2cc(F)c(F)cc12` [Compound 199, 1-(5-chloro-6-(4,4-difluoropiperidin-1-yl)pyridin-3-yl)-3-(5,6-difluoro-1H-indol-3-yl)urea], the figure is 40 to 200 nM; as for `Cc1cc(NC(=O)Nc2c[nH]c3cc(F)c(F)cc23)cnc1N1CCC(F)(F)CC1` [Compound 200, 1-(5,6-difluoro-1H-indol-3-yl)-3-(6-(4,4-difluoropiperidin-1-yl)-5-methylpyridin-3-yl)urea], 40 to 200 nM; as for `Cc1cc(NC(=O)Nc2c[nH]c3ccccc23)cnc1N1CCC(F)(F)CC1` [Compound 201, 1-(6-(4,4-difluoropiperidin-1-yl)-5-methylpyridin-3-yl)-3-(1H-indol-3-yl)urea], 200 to 1000 nM.
As for `COC1CCN(c2ncc(NC(=O)Nc3c[nH]c4ccccc34)cc2C)CC1` [Compound 202, 1-(1H-indol-3-yl)-3-(6-(4-methoxypiperidin-1-yl)-5-methylpyridin-3-yl)urea], the figure is 1000 to 5000 nM.
The value for `O=C(Nc1ccc(C2CCC(F)(F)CC2)nc1)Nc1c[nH]c2ccc(Br)cc12` [Compound 203, 1-(5-bromo-1H-indol-3-yl)-3-(6-(4,4-difluorocyclohexyl)pyridin-3-yl)urea] was 40 to 200 nM.
With `O=C(Nc1ccc(N2CCC(F)(F)CC2)nn1)Nc1c[nH]c2ccccc12` [Compound 204, 1-(6-(4,4-difluoropiperidin-1-yl)pyridazin-3-yl)-3-(1H-indol-3-yl)urea], the EC50 is 1000 to 5000 nM.
As for `O=C(Nc1cnc(N2CCC(F)(F)CC2)cn1)Nc1c[nH]c2ccccc12` [Compound 205, 1-(5-(4,4-difluoropiperidin-1-yl)pyrazin-2-yl)-3-(1H-indol-3-yl)urea], the figure is 200 to 1000 nM; as for `O=C(Nc1cnc(N2CCC(F)(F)CC2)c(Cl)c1)Nc1c[nH]c2ccccc12` [Compound 206, 1-(5-chloro-6-(4,4-difluoropiperidin-1-yl)pyridin-3-yl)-3-(1H-indol-3-yl)urea], 40 to 200 nM.
The value for `N#Cc1cc(NC(=O)Nc2c[nH]c3ccccc23)ccc1C1CCC(F)(F)CC1` [Compound 207, 1-(3-cyano-4-(4,4-difluorocyclohexyl)phenyl)-3-(1H-indol-3-yl)urea] was 40 to 200 nM.
The value for `O=C(Nc1cnc(N2CCC(F)(F)CC2)c(Cl)c1)Nc1c[nH]c2ccc(Br)cc12` [Compound 208, 1-(5-bromo-1H-indol-3-yl)-3-(5-chloro-6-(4,4-difluoropiperidin-1-yl)pyridin-3-yl)urea] was 1000 to 5000 nM; that for `O=C(Nc1cnn(C2CCC(F)(F)CC2)c1)Nc1c[nH]c2ccc(Cl)cc12` [Compound 209, 1-(5-chloro-1H-indol-3-yl)-3-(1-(4,4-difluorocyclohexyl)-1H-pyrazol-4-yl)urea] was 200 to 1000 nM; that for `O=C(Nc1cn(C2CCC(F)(F)CC2)cn1)Nc1c[nH]c2ccc(F)cc12` [Compound 210, 1-[1-(4,4-difluorocyclohexyl)imidazol-4-yl]-3-(5-fluoro-1H-indol-3-yl)urea] was 1000 to 5000 nM.
Take `O=C(Nc1ccn(C2CCC(F)(F)CC2)n1)Nc1c[nH]c2ccc(F)cc12` [Compound 211, 1-(1-(4,4-difluorocyclohexyl)-1H-pyrazol-3-yl)-3-(5-fluoro-1H-indol-3-yl)urea]: the EC50 was in the range of 1000 to 5000 nM.
As for `O=C(Nc1cn(C2CCC(F)(F)CC2)cn1)Nc1c[nH]c2ccc(Cl)cc12` [Compound 212, 3-(5-chloro-1H-indol-3-yl)-1-[1-(4,4-difluorocyclohexyl)imidazol-4-yl]urea], the figure is 1000 to 5000 nM.
